The source of these data is patent publication US5587392A, “Azolyl methyl phenyl derivatives having aromatase inhibitory activity” (Mochida Pharmaceutical Co., Ltd., priority 1994, dated 1996).

The conditions of data set [1]: related art; cited from earlier work.
The target in a further data set is T1, aromatase from rat ovary (Rattus norvegicus, UniProt P22443).
T1 construct: Using as an enzyme sample the ovarian microsome fraction from a female rat; from tissue; host or cells: rat ovary, microsome fraction (female rat)
T1 sequence (P22443 1-508): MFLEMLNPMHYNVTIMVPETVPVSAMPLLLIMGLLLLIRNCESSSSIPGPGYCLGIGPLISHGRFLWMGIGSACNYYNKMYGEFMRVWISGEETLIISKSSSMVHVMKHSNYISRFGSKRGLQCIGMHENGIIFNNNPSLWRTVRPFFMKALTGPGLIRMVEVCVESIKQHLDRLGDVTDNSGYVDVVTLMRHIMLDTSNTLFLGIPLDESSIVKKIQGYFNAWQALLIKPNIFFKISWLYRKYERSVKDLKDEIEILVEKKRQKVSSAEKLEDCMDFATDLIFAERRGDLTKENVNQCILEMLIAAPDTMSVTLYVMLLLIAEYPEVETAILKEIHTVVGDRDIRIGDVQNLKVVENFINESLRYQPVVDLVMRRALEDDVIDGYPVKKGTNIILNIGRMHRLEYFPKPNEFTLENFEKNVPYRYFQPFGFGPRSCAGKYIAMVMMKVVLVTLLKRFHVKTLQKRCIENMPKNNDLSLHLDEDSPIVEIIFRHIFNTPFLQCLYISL
Kind of data set: Inhibitory activity on aromatase from rat ovary. Type of data set: biochemical.

In a further data set the test system is plasma estradiol. Kind of data set: Decreasing activity on blood estrogen (plasma estradiol, PMSG-treated rats). It counts as in vivo, female SD rats. The conditions noted are these: Rattus norvegicus, po, 4 hours after dosing, read-out: Ratio in plasma estradiol decrease; for inhibition in vivo at 0.1 mg/kg: 0.1 mg/kg orally; for inhibition in vivo at 0.01 mg/kg: 0.01 mg/kg orally. On the procedure:
More specifically, pregnant mare serum gonadotropin (PMSG) was subcutaneously administered to female SD rats aged 3 weeks, at a dose of 200 IU/rat. […] Four hours after the dosing of the test compound, blood was sampled, and plasma estradiol was messuered by radioimmunoassay(RIA). The decreasing ratio (%) in plasma estradiol levels was calculated by comparing with control groups.

Another data set concerns corticosterone. Kind of data set: Effect on plasma levels of corticosterone. The following applies: even at the highest doses (10 mg/kg; CGS 16949A 1 mg/kg). Type of data set: in vivo, male SD rats.
For another data set, the system named is progesterone. Kind of data set: Effect on plasma levels of progesterone. Type of data set: in vivo, male SD rats. The conditions noted are these: even at the highest doses (10 mg/kg; CGS 16949A 1 mg/kg).
The next data set concerns testosterone. Kind of data set: Effect on plasma levels of testosterone. It counts as in vivo, male SD rats. The following applies: even at the highest doses (10 mg/kg; CGS 16949A 1 mg/kg).
The subject of data set [2] is steroid hormone level in blood. Kind of data set: Effects on the synthesis of various steroid hormones, compared with the dose lowering blood estrogen. The conditions noted are these: 10 mg/kg. Type of data set: in vivo, rats.
A further data set concerns aromatase. The following applies: related art; cited from earlier work.
The subject of data set [3] is estrogen-dependent diseases. The following applies: related art; cited from earlier work.
Where [4] appears, read: rat ovarian microsomes, 30 nM [1β-3H] androstenedione, pH 7.4, 37° C., 15 minutes, read-out: IC50 value.

As a reminder, the IC50 is the concentration at which inhibition is half-maximal.

Read-outs that look alike come from different tables or passages of the source.

For `C[C@]12CCC(=O)C(O)=C1CC[C@@H]1[C@@H]2CC[C@]2(C)C(=O)CC[C@@H]12` [4-hydroxyandrostenedione], the “absorption when administered orally” value in data set [1] is given as “poorly absorbed when administered orally”.
Consider `Clc1ccc(Oc2cccc3ccccc23)c(Cn2ccnc2)c1` [Example 5, 1-[5-chloro-2-(1-naphthyloxy)benzyl]-1H-imidazole], for which the IC50 on aromatase from rat ovary (setting [4]) stood at 6000 pM.
Turning to `Clc1ccc(Oc2ccc3ccccc3c2)c(Cn2ccnc2)c1` [Example 6, 1-[5-Chloro-2-(2-naphthyloxy)benzyl]-1H-imidazole], the IC50 at aromatase from rat ovary (setting [4]) was 9900 pM.
For `Cn1nnc2ccc(Oc3ccc(Cl)cc3Cn3ccnc3)cc21` [Example 38, 6-[4-chloro-2-(1H-imidazol-1-ylmethyl)phenoxy]-1-methyl-1H-benzotriazole], the inhibition in vivo at 0.1 mg/kg in the data set on plasma estradiol worked out at 44%. Further, the IC50 on aromatase from rat ovary (setting [4]) came out at 400 pM.
`Clc1ccc(Oc2ccc3[nH]nnc3c2)c(Cn2cncn2)c1` [Example 40, 5-[4-chloro-2-(1H-1,2,4-triazol-1-ylmethyl)phenoxy]-1H-benzotriazole]: the IC50 on aromatase from rat ovary (setting [4]) came out at 600 pM.
For the compound `Cn1nnc2ccc(Oc3ccc(Cl)cc3Cn3cncn3)cc21` [Example 41, 6-[4-chloro-2-(1H-1,2,4-triazol-1-ylmethyl)phenoxy]-1-methyl-1H-benzotriazole], in the data set with plasma estradiol, the inhibition in vivo at 0.01 mg/kg turned out to be 46% and the inhibition in vivo at 0.1 mg/kg is 70%. Besides, the IC50 at aromatase from rat ovary (setting [4]) worked out at 500 pM. Moreover, in the data set on corticosterone, the “effect on plasma levels of corticosterone” value is “neither the compound of Example 41 nor the compound of Example 52 in accordance with the present invention had any effect”. The “effect on plasma levels of progesterone” value in the data set with progesterone is given as “neither the compound of Example 41 nor the compound of Example 52 in accordance with the present invention had any effect”. Further, in the data set with testosterone, the “effect on plasma levels of testosterone” value is recorded as “neither the compound of Example 41 nor the compound of Example 52 in accordance with the present invention had any effect”. Moreover, the “effect on any steroid hormone level in blood” value in data set [2] is “Neither the compound of Example 41 nor the compound of Example 52 in accordance with the present invention had any effect”.
For the compound `Cn1nnc2ccc(Oc3ccc(Br)cc3Cn3cncn3)cc21` [Example 43, 6-[4-bromo-2-(1H-1,2,4-triazol-1-ylmethyl)phenoxy]-1-methyl-1H-benzotriazole], in the data set with plasma estradiol, the inhibition in vivo at 0.01 mg/kg is 41% and the inhibition in vivo at 0.1 mg/kg is 69%. The IC50 at aromatase from rat ovary (setting [4]) worked out at 300 pM.
In the case of `Cn1nnc2ccc(Oc3ccccc3Cn3cncn3)cc21` [Example 44, 1-methyl-6-[2-(1H-1,2,4-triazol-1-ylmethyl)phenoxy]-1H-benzotriazole], the inhibition in vivo at 0.1 mg/kg in the data set with plasma estradiol amounted to 23%. Also, the 50% inhibitory concentration (IC50) at aromatase from rat ovary (setting [4]) was 7800 pM.
Regarding `Cn1nnc2ccc(Oc3ccc(F)cc3Cn3cncn3)cc21` [Example 45, 6-[4-Fluoro-2-(1H-1,2,4-triazol-1-ylmethyl)phenoxy]-1-methyl-1H-benzotriazole], the IC50 at aromatase from rat ovary (setting [4]) came out at 3300 pM.
For the compound `Cn1nnc2ccc(Oc3ccc(I)cc3Cn3cncn3)cc21` [Example 46, 6-[4-Iodo-2-(1H-1,2,4-triazol-1-ylmethyl)phenoxy]-1-methyl-1H-benzotriazole], the inhibition in vivo at 0.01 mg/kg in the data set with plasma estradiol was found to be 36%. Further, the IC50 on aromatase from rat ovary (setting [4]) came to 400 pM.
Consider `COc1ccc(Oc2ccc3nnn(C)c3c2)c(Cn2cncn2)c1` [Example 47, 6-[4-Methoxy-2-(1H-1,2,4-triazol-1-ylmethyl)phenoxy]-1-methyl-1H-benzotriazole], for which, at aromatase from rat ovary (setting [4]), the half-maximal inhibitory concentration (IC50) worked out at 1600 pM.
For the compound `Cn1nnc2ccc(Oc3ccc(OC(F)(F)F)cc3Cn3cncn3)cc21` [Example 48, 1-Methyl-6-[4-(trifluoromethoxy)-2-(1H-1,2,4-triazol-1-ylmethyl)phenoxy]-1H-benzotriazole], in the data set on plasma estradiol, the inhibition in vivo at 0.01 mg/kg was 30%. Further, the IC50 against aromatase from rat ovary came out at 900 pM.
`Cn1nnc2ccc(Oc3cc(Cl)ccc3Cn3cncn3)cc21` [Example 49, 6-[5-Chloro-2-(1H-1,2,4-triazol-1-ylmethyl)phenoxy]-1-methyl-1H-benzotriazole]: the IC50 on aromatase from rat ovary (setting [4]) was determined as 1500 pM.
Turning to `Cn1nnc2ccc(Oc3ccc([N+](=O)[O-])cc3Cn3cncn3)cc21` [Example 50, 1-methyl-6-[4-nitro-2-(1H-1,2,4-triazol-1-ylmethyl)phenoxy]-1H-benzotriazole], in the data set on plasma estradiol, the inhibition in vivo at 0.01 mg/kg stood at 59%. Moreover, the IC50 on aromatase from rat ovary (setting [4]) was determined as 500 pM.
Consider `CC(=O)c1ccc(Oc2ccc3nnn(C)c3c2)c(Cn2cncn2)c1` [Example 51, 4-[6-(1-methyl-1H-benzotriazoyloxy)]-3-(1H-1,2,4-triazol-1-ylmethyl)acetophenone], for which the IC50 on aromatase from rat ovary (setting [4]) was 1200 pM.
On the same count and under the same terms, then `Cn1nnc2ccc(Oc3ccc(C=O)cc3Cn3cncn3)cc21` [Example 53, 4-[6-(1-methyl-1H-benzotriazoyloxy)]-3-(1H-1,2,4-triazol-1-ylmethyl)benzaldehyde], with 800 pM; and `CCOC(=O)c1ccc(Oc2ccc3nnn(C)c3c2)c(Cn2cncn2)c1` [Example 55, 4-[6-(1-methyl-1H-benzotriazoyloxy) ]-3-(1H-1,2,4-triazol-1-ylmethyl)benzoic acid ethyl ester], with 1400 pM; and `C=Cc1ccc(Oc2ccc3nnn(C)c3c2)c(Cn2cncn2)c1` [Example 56], with 300 pM.
The same measure, in the same setting: then `C#Cc1ccc(Oc2ccc3nnn(C)c3c2)c(Cn2cncn2)c1` [Example 58, 6-[4-ethynyl-2-(1H-1,2,4-triazol-1-ylmethyl)phenoxy]-1-methyl-1H-benzotriazole], with 300 pM.
Still for that read-out and setting: then `Cn1nnc2ccc(Oc3ccc(C(F)(F)F)cc3Cn3cncn3)cc21` [Example 64, 6-[2-(1H-1,2,4-triazol-1-ylmethyl)-4-(trifluoromethyl)phenoxy]-1-methyl-1H-benzotriazole], with 600 pM; and `CCn1nnc2ccc(Oc3ccc(Cl)cc3Cn3cncn3)cc21` [Example 67, 6-[4-chloro-2-(1H-1,2,4-triazol-1-ylmethyl)phenoxy]-1-ethyl-1H-benzotriazole], with 600 pM.
As for `Cn1cnc2ccc(Oc3ccc(Cl)cc3Cn3cncn3)cc21` [Example 68, 6-[4-chloro-2-(1H-1,2,4-triazol-1-ylmethyl)phenoxy]-1-methylbenzimidazole], the IC50 at aromatase from rat ovary (setting [4]) came to 2600 pM.
Take `Cn1nnc2ccc(Sc3ccc(Cl)cc3Cn3cncn3)cc21` [Example 71, 6-[4-chloro-2-(1H-1,2,4-triazol-1-ylmethyl)phenylthio]-1-methyl-1H-benzotriazole]: on aromatase from rat ovary (setting [4]), the IC50 is 1200 pM.
Still for that read-out and setting: then `Cn1nnc2ccc(Cc3ccc(Cl)cc3Cn3cncn3)cc21` [Example 79, 6-[4-chloro-2-(1H-1,2,4-triazol-1-ylmethyl)benzyl]-1-methyl-1H-benzotriazole], with 700 pM.
For the compound `Cn1nnc2ccc(Cc3ccc(C#N)cc3Cn3cncn3)cc21` [Example 80, 4-[(1-methyl-1H-benzotriazole-6-yl)methyl]-3-(1H-1,2,4-triazol-1-ylmethyl)benzonitrile], the inhibition in vivo at 0.1 mg/kg in the data set with plasma estradiol was 49%. Also, at aromatase from rat ovary (setting [4]), the IC50 was 1900 pM.
On to `Clc1ccccc1C(c1ccccc1)(c1ccccc1)n1ccnc1` [clotrimazole], for which, in the data set with aromatase, the aromatase inhibitory action result is “have aromatase inhibitory activities as well”.
With `CC(=O)N1CCN(c2ccc(OCC3COC(Cn4ccnc4)(c4ccc(Cl)cc4Cl)O3)cc2)CC1` (stereo not drawn) [ketoconazole], the aromatase inhibitory action result in the data set on aromatase is recorded as “have aromatase inhibitory activities as well”.
As to `Clc1ccc(COC(Cn2ccnc2)c2ccc(Cl)cc2Cl)c(Cl)c1` (stereo not drawn) [miconazole], the aromatase inhibitory action entry with aromatase is reported as “have aromatase inhibitory activities as well”.
In the case of `CC/C(=C(\c1ccccc1)c1ccc(OCCN(C)C)cc1)c1ccccc1` [tamoxifen], the therapeutical efficacy result in data set [3] is “clinically satisfactory effect cannot be brought about from such administration alone”.
As for `C[C@]12C=CC(=O)C=C1CC[C@@H]1[C@@H]2CC[C@]2(C)OC(=O)CC[C@@H]12` [testolactone], the “absorption when administered orally” value in [1] is “poorly absorbed when administered orally”. Also, the therapeutical efficacy entry in [3] is listed as “never exerts sufficient therapeutical efficacy”.
